{
  "source": "the kinase profiling compilation of Christmann-Franck et al. (2016)",
  "key": {"AURKB (human)": {"biological_target": "AURKB (human) (UniProt Q96GD4)", "conditions": "compound 10.0 µM"}, "BTK (human)": {"biological_target": "BTK (human) (UniProt Q06187)"}, "CSNK2A1 (human)": {"biological_target": "CSNK2A1 (human) (UniProt P68400)"}, "DYRK1A (human)": {"biological_target": "DYRK1A (human) (UniProt Q13627)"}, "DYRK2 (human)": {"biological_target": "DYRK2 (human) (UniProt Q92630)"}, "FGFR1 (human)": {"biological_target": "FGFR1 (human) (UniProt P11362)", "sequence (P11362 whole entry, looked up)": "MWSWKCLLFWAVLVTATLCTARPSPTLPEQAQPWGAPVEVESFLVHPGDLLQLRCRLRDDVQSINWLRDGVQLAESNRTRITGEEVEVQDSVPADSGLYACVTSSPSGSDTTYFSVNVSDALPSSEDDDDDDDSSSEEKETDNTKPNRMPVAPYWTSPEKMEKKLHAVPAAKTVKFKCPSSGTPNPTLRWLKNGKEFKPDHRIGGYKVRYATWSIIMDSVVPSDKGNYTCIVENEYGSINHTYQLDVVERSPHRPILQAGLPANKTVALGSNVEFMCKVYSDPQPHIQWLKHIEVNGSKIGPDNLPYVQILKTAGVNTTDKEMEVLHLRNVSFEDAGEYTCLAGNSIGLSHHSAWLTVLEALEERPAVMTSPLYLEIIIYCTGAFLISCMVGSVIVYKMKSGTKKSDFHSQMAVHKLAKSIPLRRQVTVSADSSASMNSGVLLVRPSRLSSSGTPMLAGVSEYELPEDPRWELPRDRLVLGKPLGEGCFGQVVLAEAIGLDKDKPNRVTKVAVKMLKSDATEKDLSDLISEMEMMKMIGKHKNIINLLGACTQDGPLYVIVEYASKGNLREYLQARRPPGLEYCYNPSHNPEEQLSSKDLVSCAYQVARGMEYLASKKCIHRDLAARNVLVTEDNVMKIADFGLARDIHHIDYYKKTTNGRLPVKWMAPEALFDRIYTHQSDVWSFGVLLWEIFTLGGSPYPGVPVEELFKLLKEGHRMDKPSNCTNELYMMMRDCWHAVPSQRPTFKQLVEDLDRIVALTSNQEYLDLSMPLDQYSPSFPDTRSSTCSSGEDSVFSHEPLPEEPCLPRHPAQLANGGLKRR"}, "IKBKB (human)": {"biological_target": "IKBKB (human) (UniProt O14920)", "sequence (O14920 whole entry, looked up)": "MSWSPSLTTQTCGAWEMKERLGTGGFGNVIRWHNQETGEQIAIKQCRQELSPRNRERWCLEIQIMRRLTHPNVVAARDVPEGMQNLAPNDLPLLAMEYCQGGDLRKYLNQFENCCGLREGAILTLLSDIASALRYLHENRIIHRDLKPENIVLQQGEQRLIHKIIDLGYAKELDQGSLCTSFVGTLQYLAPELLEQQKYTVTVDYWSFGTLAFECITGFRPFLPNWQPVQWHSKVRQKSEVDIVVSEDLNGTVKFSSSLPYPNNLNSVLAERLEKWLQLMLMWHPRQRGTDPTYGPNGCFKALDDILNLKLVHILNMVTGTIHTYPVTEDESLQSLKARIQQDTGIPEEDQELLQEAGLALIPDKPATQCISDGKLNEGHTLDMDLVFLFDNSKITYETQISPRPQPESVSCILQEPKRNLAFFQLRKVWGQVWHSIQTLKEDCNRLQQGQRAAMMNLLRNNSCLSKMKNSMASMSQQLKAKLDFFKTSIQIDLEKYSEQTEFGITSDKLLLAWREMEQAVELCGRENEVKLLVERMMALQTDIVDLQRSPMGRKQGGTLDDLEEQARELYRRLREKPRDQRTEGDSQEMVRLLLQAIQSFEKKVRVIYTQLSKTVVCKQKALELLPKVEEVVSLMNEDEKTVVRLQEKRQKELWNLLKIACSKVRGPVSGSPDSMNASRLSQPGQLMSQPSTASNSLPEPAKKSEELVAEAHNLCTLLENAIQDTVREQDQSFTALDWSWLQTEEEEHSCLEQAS"}, "INSRR (human)": {"biological_target": "INSRR (human) (UniProt P14616)"}, "MAP2K1 (human)": {"biological_target": "MAP2K1 (human) (UniProt Q02750)", "sequence (Q02750 whole entry, looked up)": "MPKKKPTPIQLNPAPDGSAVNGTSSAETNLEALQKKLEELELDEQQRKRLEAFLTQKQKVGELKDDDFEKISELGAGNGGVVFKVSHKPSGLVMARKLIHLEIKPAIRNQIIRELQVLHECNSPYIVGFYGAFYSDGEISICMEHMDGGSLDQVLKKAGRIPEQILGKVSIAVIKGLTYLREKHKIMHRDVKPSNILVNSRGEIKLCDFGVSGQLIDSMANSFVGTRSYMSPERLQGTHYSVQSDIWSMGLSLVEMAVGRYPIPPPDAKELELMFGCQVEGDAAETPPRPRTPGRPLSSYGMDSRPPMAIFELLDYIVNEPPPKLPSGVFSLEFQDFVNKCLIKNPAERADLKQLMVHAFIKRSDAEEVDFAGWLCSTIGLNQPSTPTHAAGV"}, "MAPK13 (human)": {"biological_target": "MAPK13 (human) (UniProt O15264)"}, "MAPK14 (human)": {"biological_target": "MAPK14 (human) (UniProt Q16539)"}, "MAPK3 (human)": {"biological_target": "MAPK3 (human) (UniProt P27361)", "sequence (P27361 whole entry, looked up)": "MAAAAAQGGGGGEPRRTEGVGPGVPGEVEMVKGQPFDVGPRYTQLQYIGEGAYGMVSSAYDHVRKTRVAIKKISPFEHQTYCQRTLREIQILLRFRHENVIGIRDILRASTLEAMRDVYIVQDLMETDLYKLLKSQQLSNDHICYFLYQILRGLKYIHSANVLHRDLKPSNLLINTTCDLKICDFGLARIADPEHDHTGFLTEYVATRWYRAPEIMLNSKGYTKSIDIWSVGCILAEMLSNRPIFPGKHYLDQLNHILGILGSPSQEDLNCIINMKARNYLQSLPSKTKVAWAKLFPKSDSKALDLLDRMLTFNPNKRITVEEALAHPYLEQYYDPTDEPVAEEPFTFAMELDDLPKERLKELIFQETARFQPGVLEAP"}, "MAPK8 (human)": {"biological_target": "MAPK8 (human) (UniProt P45983)"}, "MAPKAPK5 (human)": {"biological_target": "MAPKAPK5 (human) (UniProt Q8IW41)", "sequence (Q8IW41 whole entry, looked up)": "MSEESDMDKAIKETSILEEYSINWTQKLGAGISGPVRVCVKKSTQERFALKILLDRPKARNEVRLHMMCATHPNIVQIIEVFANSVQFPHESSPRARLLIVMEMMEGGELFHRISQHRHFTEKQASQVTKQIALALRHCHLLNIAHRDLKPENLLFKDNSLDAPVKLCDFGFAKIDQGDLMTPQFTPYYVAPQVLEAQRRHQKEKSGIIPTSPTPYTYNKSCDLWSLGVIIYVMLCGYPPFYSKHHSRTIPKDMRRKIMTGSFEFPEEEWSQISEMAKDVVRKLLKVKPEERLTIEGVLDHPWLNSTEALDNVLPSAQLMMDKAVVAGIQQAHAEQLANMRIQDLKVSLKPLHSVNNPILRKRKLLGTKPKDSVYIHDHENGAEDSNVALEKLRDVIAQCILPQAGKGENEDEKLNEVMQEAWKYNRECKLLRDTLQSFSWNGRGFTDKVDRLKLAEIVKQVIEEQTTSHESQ"}, "MKNK2 (human)": {"biological_target": "MKNK2 (human) (UniProt Q9HBH9)"}, "MST4 (human)": {"biological_target": "MST4 (human) (UniProt Q9P289)"}, "NEK6 (human)": {"biological_target": "NEK6 (human) (UniProt Q9HC98)", "sequence (Q9HC98 whole entry, looked up)": "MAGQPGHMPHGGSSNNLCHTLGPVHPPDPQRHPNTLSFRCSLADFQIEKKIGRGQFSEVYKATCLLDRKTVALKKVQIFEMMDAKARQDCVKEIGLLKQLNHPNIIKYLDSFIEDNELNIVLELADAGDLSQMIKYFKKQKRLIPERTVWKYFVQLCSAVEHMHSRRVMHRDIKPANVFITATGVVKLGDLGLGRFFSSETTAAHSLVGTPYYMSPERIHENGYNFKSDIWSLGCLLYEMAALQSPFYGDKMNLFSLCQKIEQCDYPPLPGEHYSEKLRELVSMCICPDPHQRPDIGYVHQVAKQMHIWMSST"}, "PDPK1 (human)": {"biological_target": "PDPK1 (human) (UniProt O15530)", "sequence (O15530 whole entry, looked up)": "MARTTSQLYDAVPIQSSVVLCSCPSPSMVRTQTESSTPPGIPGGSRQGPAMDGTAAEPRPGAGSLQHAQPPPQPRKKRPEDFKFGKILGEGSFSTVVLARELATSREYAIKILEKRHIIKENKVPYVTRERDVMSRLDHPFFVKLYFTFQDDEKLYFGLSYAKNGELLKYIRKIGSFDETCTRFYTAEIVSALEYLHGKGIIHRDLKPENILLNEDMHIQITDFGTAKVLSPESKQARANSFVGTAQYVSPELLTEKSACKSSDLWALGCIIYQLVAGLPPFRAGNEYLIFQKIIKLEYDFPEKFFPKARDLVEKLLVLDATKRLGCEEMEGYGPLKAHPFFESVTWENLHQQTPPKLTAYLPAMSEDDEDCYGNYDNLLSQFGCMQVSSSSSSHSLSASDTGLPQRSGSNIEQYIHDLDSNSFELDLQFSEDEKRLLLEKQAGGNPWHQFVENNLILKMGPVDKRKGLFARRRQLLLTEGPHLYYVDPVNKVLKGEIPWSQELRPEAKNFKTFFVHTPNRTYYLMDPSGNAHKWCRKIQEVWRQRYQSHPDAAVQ"}, "PKN2 (human)": {"biological_target": "PKN2 (human) (UniProt Q16513)"}, "PRKAA1 or PRKAA2 (rat)": {"tested_on": "PRKAA1 or PRKAA2 (rat)", "conditions": "accession and sequence are those of the human protein"}, "RPS6KA3 KD1 KD2 (human)": {"biological_target": "RPS6KA3 KD1 KD2 (human) (UniProt P51812)", "sequence (P51812 whole entry, looked up)": "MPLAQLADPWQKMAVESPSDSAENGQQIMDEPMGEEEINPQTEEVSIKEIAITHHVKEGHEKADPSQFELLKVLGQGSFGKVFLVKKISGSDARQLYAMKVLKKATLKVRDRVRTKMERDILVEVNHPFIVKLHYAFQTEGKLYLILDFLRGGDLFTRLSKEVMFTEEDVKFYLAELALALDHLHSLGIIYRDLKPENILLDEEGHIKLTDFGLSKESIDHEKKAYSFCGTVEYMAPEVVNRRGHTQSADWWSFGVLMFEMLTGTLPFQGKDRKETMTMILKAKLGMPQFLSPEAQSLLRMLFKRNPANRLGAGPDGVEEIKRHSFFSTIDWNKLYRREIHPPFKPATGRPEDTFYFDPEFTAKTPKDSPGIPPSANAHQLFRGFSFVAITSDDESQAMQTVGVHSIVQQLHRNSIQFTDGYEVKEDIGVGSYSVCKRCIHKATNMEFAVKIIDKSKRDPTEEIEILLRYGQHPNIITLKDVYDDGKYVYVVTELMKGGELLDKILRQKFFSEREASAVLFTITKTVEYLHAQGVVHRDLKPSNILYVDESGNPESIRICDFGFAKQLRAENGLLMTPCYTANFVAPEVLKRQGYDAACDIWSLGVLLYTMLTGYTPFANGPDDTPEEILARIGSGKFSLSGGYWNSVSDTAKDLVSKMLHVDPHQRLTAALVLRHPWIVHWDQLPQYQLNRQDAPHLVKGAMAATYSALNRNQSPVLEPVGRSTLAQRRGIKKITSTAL"}, "YES1 (human)": {"biological_target": "YES1 (human) (UniProt P07947)", "sequence (P07947 whole entry, looked up)": "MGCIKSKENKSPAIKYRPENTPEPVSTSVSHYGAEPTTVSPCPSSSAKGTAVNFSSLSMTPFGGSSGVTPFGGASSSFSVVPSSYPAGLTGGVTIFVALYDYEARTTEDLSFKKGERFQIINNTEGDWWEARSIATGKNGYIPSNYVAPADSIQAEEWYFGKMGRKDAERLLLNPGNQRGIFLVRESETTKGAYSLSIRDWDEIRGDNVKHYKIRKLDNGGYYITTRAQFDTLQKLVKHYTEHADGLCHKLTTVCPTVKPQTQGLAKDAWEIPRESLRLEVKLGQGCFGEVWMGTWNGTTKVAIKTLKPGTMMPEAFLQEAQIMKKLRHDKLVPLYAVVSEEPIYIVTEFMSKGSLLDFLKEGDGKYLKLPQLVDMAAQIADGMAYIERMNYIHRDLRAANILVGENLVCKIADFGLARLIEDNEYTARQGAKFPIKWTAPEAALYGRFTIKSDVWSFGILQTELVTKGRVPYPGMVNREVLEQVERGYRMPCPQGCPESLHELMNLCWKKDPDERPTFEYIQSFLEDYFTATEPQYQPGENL"}, "[1]": {"tested_on": "BRAF (human), P15056 [V600E]", "assay": "KINOMEscan competition binding", "conditions": "compound 10.0 µM"}, "CAMK2A (human)": {"biological_target": "CAMK2A (human) (UniProt Q9UQM7)", "assay": "KINOMEscan competition binding", "conditions": "compound 10.0 µM"}, "CDK16 (human)": {"biological_target": "CDK16 (human) (UniProt Q00536)", "assay": "KINOMEscan competition binding", "conditions": "compound 10.0 µM"}, "CSK (human)": {"biological_target": "CSK (human) (UniProt P41240)", "assay": "KINOMEscan competition binding", "conditions": "compound 10.0 µM"}, "EIF2AK1 (human)": {"biological_target": "EIF2AK1 (human) (UniProt Q9BQI3)", "assay": "KINOMEscan competition binding", "conditions": "compound 10.0 µM"}, "[2]": {"biological_target": "JAK1 JH2 pseudokinase (human) (UniProt P23458)", "assay": "KINOMEscan competition binding", "conditions": "compound 10.0 µM"}, "[3]": {"tested_on": "KIT (human), P10721 [L576P]", "assay": "KINOMEscan competition binding", "conditions": "compound 10.0 µM"}, "NIM1 (human)": {"biological_target": "NIM1 (human) (UniProt Q8IY84)", "assay": "KINOMEscan competition binding", "conditions": "compound 10.0 µM"}, "PHKG1 (human)": {"biological_target": "PHKG1 (human) (UniProt Q16816)", "assay": "KINOMEscan competition binding", "conditions": "compound 10.0 µM"}, "PI4KB (human)": {"biological_target": "PI4KB (human) (UniProt Q9UBF8)", "assay": "KINOMEscan competition binding", "conditions": "compound 10.0 µM"}, "PRKCE (human)": {"biological_target": "PRKCE (human) (UniProt Q02156)", "assay": "KINOMEscan competition binding", "conditions": "compound 10.0 µM"}, "RIPK4 (human)": {"biological_target": "RIPK4 (human) (UniProt P57078)", "assay": "KINOMEscan competition binding", "conditions": "compound 10.0 µM"}, "TLK2 (human)": {"biological_target": "TLK2 (human) (UniProt Q86UE8)", "assay": "KINOMEscan competition binding", "conditions": "compound 10.0 µM"}},
  "note": "Several values for one entry are separate records, joined by “and”; a condition that tells them apart may be missing. Equal values may be shown once.",
  "data": [
    {"smiles": "COc1ccc(-c2ccc3c(N4CCOCC4)nc(N4C[C@@H](C)O[C@@H](C)C4)nc3n2)cc1CO", "values": [
      {"measurement": "per cent of control", "setting": "AURKB (human)", "result": 86, "unit": "%"},
      {"measurement": "per cent of control", "setting": "BTK (human); compound 1.0 µM", "result": 85, "unit": "%"},
      {"measurement": "per cent of control", "setting": "BTK (human); compound 10.0 µM", "result": 81, "unit": "%"},
      {"measurement": "per cent of control", "setting": "CSNK2A1 (human); compound 1.0 µM", "result": 104, "unit": "%"},
      {"measurement": "per cent of control", "setting": "CSNK2A1 (human); compound 10.0 µM", "result": 85, "unit": "%"},
      {"measurement": "per cent of control", "setting": "DYRK1A (human); compound 1.0 µM", "result": 94, "unit": "%"},
      {"measurement": "per cent of control", "setting": "DYRK1A (human); compound 10.0 µM", "result": 80, "unit": "%"},
      {"measurement": "per cent of control", "setting": "DYRK2 (human); compound 1.0 µM", "result": 92, "unit": "%"},
      {"measurement": "per cent of control", "setting": "DYRK2 (human); compound 10.0 µM", "result": 96, "unit": "%"},
      {"measurement": "per cent of control", "setting": "FGFR1 (human); compound 1.0 µM", "result": 102, "unit": "%"},
      {"measurement": "per cent of control", "setting": "FGFR1 (human); compound 10.0 µM", "result": 87, "unit": "%"},
      {"measurement": "per cent of control", "setting": "IKBKB (human); compound 1.0 µM", "result": 104, "unit": "%"},
      {"measurement": "per cent of control", "setting": "IKBKB (human); compound 10.0 µM", "result": 89, "unit": "%"},
      {"measurement": "per cent of control", "setting": "INSRR (human); compound 1.0 µM", "result": 105, "unit": "%"},
      {"measurement": "per cent of control", "setting": "INSRR (human); compound 10.0 µM", "result": 71, "unit": "%"},
      {"measurement": "per cent of control", "setting": "MAP2K1 (human); compound 1.0 µM", "result": 96, "unit": "%"},
      {"measurement": "per cent of control", "setting": "MAP2K1 (human); compound 10.0 µM", "result": 43, "unit": "%"},
      {"measurement": "per cent of control", "setting": "MAPK13 (human); compound 1.0 µM", "result": 72, "unit": "%"},
      {"measurement": "per cent of control", "setting": "MAPK13 (human); compound 10.0 µM", "result": 87, "unit": "%"},
      {"measurement": "per cent of control", "setting": "MAPK14 (human); compound 1.0 µM", "result": 101, "unit": "%"},
      {"measurement": "per cent of control", "setting": "MAPK14 (human); compound 10.0 µM", "result": 96, "unit": "%"},
      {"measurement": "per cent of control", "setting": "MAPK3 (human); compound 1.0 µM", "result": 102, "unit": "%"},
      {"measurement": "per cent of control", "setting": "MAPK3 (human); compound 10.0 µM", "result": 87, "unit": "%"},
      {"measurement": "per cent of control", "setting": "MAPK8 (human); compound 1.0 µM", "result": 80, "unit": "%"},
      {"measurement": "per cent of control", "setting": "MAPK8 (human); compound 10.0 µM", "result": 93, "unit": "%"},
      {"measurement": "per cent of control", "setting": "MAPKAPK5 (human); compound 1.0 µM", "result": 67, "unit": "%"},
      {"measurement": "per cent of control", "setting": "MAPKAPK5 (human); compound 10.0 µM", "result": 87, "unit": "%"},
      {"measurement": "per cent of control", "setting": "MKNK2 (human); compound 1.0 µM", "result": 87, "unit": "%"},
      {"measurement": "per cent of control", "setting": "MKNK2 (human); compound 10.0 µM", "result": 92, "unit": "%"},
      {"measurement": "per cent of control", "setting": "MST4 (human); compound 1.0 µM", "result": 87, "unit": "%"},
      {"measurement": "per cent of control", "setting": "MST4 (human); compound 10.0 µM", "result": 86, "unit": "%"},
      {"measurement": "per cent of control", "setting": "NEK6 (human); compound 1.0 µM", "result": 74, "unit": "%"},
      {"measurement": "per cent of control", "setting": "NEK6 (human); compound 10.0 µM", "result": 83, "unit": "%"},
      {"measurement": "per cent of control", "setting": "PDPK1 (human); compound 1.0 µM", "result": "80% and 89%"},
      {"measurement": "per cent of control", "setting": "PDPK1 (human); compound 10.0 µM", "result": "91% and 101%"},
      {"measurement": "per cent of control", "setting": "PKN2 (human); compound 1.0 µM", "result": 95, "unit": "%"},
      {"measurement": "per cent of control", "setting": "PKN2 (human); compound 10.0 µM", "result": 105, "unit": "%"},
      {"measurement": "per cent of control", "setting": "PRKAA1 or PRKAA2 (rat); compound 1.0 µM", "result": 97, "unit": "%"},
      {"measurement": "per cent of control", "setting": "PRKAA1 or PRKAA2 (rat); compound 10.0 µM", "result": 106, "unit": "%"},
      {"measurement": "per cent of control", "setting": "RPS6KA3 KD1 KD2 (human); compound 1.0 µM", "result": 103, "unit": "%"},
      {"measurement": "per cent of control", "setting": "RPS6KA3 KD1 KD2 (human); compound 10.0 µM", "result": 104, "unit": "%"},
      {"measurement": "per cent of control", "setting": "YES1 (human); compound 1.0 µM", "result": 94, "unit": "%"},
      {"measurement": "per cent of control", "setting": "YES1 (human); compound 10.0 µM", "result": 90, "unit": "%"},
      {"measurement": "kinase still bound, per cent of control", "setting": "[1]", "result": 92, "unit": "%"},
      {"measurement": "kinase still bound, per cent of control", "setting": "CAMK2A (human)", "result": 87, "unit": "%"},
      {"measurement": "per cent of control", "setting": "CDK16 (human)", "result": 100, "unit": "%"},
      {"measurement": "kinase still bound, per cent of control", "setting": "CSK (human)", "result": 77, "unit": "%"},
      {"measurement": "kinase still bound, per cent of control", "setting": "EIF2AK1 (human)", "result": 88, "unit": "%"},
      {"measurement": "kinase still bound, per cent of control", "setting": "[2]", "result": 100, "unit": "%"},
      {"measurement": "kinase still bound, per cent of control", "setting": "[3]", "result": 93, "unit": "%"},
      {"measurement": "kinase still bound, per cent of control", "setting": "NIM1 (human)", "result": 97, "unit": "%"},
      {"measurement": "kinase still bound, per cent of control", "setting": "PHKG1 (human)", "result": 93, "unit": "%"},
      {"measurement": "kinase still bound, per cent of control", "setting": "PI4KB (human)", "result": 100, "unit": "%"},
      {"measurement": "kinase still bound, per cent of control", "setting": "PRKCE (human)", "result": 82, "unit": "%"},
      {"measurement": "kinase still bound, per cent of control", "setting": "RIPK4 (human)", "result": 71, "unit": "%"},
      {"measurement": "kinase still bound, per cent of control", "setting": "TLK2 (human)", "result": 87, "unit": "%"}
    ]}
  ]
}
